Results: US8129399B2, “Aminopyrimidines useful as kinase inhibitors” (Vertex Pharmaceuticals Incorporated, priority 2005, dated 2012)

How the values were obtained:
Assay type in all cases: biochemical
Details in all cases: ATP at or close to Km
Arg (Abl-2) = Arg (Abl-2) (Homo sapiens, UniProt P42684); assay: Arg (Abl-2) inhibition screen
Text: (§1) Compound(s) were screened for their ability to inhibit Arg (Abl-2), FGFR1, MLK1, Tie2, and TrkA using screening methods known to one of ordinary skill in the art. All of the above enzymes were screened with ATP concentrations at or close to the Km for ATP.

Tie2 = Tie2 (Homo sapiens, UniProt Q02763); assay: Tie2 inhibition screen
Text: as §1

MLK1 = MLK1 (Homo sapiens, UniProt P80192); assay: MLK1 inhibition screen
Text: as §1

TrkA = TrkA (Homo sapiens, UniProt P04629); assay: TrkA inhibition screen
Text: as §1

[1] = Table 6, introduced as Ki values

Chain of Arg (Abl-2) (P42684 whole entry, species assumed): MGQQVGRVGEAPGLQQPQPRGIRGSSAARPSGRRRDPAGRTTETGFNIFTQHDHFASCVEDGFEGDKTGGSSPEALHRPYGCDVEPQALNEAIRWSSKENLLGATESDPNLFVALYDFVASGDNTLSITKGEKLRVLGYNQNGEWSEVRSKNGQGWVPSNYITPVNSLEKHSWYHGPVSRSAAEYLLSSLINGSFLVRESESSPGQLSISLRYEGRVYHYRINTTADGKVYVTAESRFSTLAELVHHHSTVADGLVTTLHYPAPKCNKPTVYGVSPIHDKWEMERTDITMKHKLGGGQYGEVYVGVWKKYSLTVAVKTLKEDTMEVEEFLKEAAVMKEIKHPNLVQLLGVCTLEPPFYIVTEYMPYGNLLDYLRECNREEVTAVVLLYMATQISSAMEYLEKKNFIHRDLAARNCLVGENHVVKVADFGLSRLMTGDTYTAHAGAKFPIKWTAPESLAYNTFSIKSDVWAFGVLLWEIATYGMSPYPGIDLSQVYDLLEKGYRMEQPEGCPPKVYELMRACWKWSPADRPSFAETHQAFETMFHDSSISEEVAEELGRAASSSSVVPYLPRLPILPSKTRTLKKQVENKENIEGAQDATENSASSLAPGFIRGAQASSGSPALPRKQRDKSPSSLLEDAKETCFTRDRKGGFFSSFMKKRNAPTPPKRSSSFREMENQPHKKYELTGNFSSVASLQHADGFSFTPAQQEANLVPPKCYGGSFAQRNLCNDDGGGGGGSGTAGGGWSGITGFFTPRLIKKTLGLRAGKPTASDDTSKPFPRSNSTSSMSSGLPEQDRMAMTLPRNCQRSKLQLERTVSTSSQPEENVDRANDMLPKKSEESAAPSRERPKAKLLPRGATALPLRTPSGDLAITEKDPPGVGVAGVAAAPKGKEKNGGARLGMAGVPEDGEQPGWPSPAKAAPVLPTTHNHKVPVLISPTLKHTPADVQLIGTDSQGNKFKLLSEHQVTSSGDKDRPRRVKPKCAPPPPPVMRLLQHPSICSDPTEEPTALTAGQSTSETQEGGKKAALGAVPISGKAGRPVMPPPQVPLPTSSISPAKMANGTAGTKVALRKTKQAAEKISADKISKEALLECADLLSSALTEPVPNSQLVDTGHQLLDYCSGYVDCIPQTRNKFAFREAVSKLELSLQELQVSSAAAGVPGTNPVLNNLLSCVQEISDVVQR
Chain of MLK1 (P80192 whole entry, species assumed): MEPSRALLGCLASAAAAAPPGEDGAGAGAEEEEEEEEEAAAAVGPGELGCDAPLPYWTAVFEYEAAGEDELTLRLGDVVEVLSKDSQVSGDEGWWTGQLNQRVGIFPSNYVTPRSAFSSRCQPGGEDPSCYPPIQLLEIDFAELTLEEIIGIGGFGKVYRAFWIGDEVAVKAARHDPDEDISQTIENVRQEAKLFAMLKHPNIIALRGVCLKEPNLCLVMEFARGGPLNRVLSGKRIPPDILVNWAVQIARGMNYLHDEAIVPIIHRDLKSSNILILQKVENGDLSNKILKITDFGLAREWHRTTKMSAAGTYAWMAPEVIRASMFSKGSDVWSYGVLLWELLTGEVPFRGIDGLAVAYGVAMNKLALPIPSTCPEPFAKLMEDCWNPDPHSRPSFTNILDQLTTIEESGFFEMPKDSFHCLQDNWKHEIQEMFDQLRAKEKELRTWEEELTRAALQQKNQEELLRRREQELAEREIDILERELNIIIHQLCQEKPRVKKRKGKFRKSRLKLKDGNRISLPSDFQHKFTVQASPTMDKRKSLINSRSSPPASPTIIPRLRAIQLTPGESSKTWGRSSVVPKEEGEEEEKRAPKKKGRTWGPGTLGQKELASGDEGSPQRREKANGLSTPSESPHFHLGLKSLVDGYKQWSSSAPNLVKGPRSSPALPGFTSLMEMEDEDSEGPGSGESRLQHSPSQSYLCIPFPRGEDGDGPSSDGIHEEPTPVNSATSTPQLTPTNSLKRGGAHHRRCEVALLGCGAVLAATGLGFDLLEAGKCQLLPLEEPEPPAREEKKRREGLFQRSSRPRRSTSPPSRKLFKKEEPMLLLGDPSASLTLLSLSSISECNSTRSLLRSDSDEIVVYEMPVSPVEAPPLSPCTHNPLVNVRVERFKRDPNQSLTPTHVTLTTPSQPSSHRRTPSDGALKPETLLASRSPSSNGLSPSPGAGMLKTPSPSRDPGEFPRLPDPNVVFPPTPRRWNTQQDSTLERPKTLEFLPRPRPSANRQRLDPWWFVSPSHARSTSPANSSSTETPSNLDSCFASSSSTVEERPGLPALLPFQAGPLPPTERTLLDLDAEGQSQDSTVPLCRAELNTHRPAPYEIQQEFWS
Chain of TrkA (P04629 33-796, species assumed): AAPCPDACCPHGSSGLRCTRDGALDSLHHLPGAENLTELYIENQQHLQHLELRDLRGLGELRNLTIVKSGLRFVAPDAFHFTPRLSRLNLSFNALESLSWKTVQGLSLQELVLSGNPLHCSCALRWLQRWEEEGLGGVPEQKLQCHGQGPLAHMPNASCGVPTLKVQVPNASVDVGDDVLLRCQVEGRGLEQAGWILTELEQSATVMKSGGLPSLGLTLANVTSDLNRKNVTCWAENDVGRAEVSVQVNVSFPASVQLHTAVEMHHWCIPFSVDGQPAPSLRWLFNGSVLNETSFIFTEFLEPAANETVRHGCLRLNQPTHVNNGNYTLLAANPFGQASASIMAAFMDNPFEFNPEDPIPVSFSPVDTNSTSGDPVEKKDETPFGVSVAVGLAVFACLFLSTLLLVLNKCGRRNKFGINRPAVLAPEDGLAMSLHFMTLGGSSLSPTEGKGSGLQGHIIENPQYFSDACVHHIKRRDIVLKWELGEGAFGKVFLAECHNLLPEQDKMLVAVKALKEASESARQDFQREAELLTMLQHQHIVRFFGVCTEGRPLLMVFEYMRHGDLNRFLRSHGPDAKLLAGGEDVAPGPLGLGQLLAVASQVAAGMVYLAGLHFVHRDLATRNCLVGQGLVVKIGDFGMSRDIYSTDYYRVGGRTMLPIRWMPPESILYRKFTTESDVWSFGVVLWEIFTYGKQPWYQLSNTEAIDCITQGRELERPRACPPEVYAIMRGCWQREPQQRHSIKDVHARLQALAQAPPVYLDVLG
Chain of Tie2 (Q02763 23-1124, species assumed): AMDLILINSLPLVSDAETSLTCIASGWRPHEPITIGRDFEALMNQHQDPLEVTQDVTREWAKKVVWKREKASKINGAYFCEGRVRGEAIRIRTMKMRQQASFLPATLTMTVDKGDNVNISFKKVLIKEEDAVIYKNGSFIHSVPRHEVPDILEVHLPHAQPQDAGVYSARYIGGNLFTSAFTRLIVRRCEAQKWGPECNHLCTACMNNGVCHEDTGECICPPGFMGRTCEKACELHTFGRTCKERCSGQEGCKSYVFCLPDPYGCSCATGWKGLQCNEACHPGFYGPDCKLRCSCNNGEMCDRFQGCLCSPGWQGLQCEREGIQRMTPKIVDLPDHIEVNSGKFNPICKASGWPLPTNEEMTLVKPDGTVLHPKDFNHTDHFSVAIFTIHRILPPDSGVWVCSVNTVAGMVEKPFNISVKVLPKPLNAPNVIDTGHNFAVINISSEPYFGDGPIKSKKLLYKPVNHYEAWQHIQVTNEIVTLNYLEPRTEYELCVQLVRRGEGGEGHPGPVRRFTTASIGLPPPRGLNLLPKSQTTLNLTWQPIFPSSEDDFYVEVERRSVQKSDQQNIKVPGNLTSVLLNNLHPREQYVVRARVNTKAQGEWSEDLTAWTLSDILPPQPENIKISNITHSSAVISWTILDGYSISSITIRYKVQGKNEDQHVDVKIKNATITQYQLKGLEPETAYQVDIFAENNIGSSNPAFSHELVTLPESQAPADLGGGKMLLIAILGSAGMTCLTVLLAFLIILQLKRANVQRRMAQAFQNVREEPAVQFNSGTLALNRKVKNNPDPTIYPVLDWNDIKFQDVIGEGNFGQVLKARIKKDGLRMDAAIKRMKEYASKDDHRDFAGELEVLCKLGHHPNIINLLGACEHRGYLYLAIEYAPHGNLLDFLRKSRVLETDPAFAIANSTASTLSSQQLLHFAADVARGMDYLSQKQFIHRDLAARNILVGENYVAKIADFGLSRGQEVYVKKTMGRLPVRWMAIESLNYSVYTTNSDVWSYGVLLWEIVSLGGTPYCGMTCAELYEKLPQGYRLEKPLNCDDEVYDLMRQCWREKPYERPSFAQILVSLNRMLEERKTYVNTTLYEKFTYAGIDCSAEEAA

| IC50 (Tie2; Table 5) [nM] | IC50 (Tie2; [1]) [nM] | IC50 (Arg (Abl-2); [1]) [nM] | IC50 (MLK1; Table 5) [nM] | IC50 (MLK1; [1]) [nM] | IC50 (TrkA; Table 5) [nM] | IC50 (TrkA; [1]) [nM] | Structure (SMILES) | IC50 (Arg (Abl-2); Table 5) [nM] |
| --- | --- | --- | --- | --- | --- | --- | --- | --- |
| – | – | – | – | – | – | – | Cc1cc(Nc2cc(N3CC(F)(C4CC4)C3)nc(Sc3ccc(NC(=O)CC4CC4)cc3)n2)[nH]n1 [Compound I-19] | 130 |
| 89 | 47 | 3.3 | 27 | 14 | 18 | 5 | Cc1cc(Nc2cc(N3CC(F)(C4CC4)C3)nc(Sc3ccc(NC(=O)CC(F)(F)F)cc3)n2)[nH]n1 [Compound I-14, N-(4-(4-(3-methyl-1H-pyrazol-5-ylamino)-6-(3-cyclopropyl-3-fluoroazetidin-1-yl)pyrimidin-2-ylthio)phenyl)-3,3,3-trifluoropropanamide] | 14 |
| – | – | – | – | – | – | – | Cc1cc(Nc2cc(N3CC(F)(C4CC4)C3)nc(Sc3ccc(NC(=O)C4CC4)cc3F)n2)n[nH]1 [Compound I-18] | 53 |
